In PubChem BioAssay (NCI):
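Assay format: 96-well plates, 48-hour exposure. At the TGI there is no net growth.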 Where a SMILES comes first, the peptide text is derived from it. [ ]: non-standard residue; d: D form. The star is where a group is joined. Cbz = O=C(OCc1ccccc1)*; Aib = CC(C)(N)C(=O)O; OBn = c1ccc(CO*)cc1

How the values were obtained:
Experiment in all cases: NCI-60 cell line screen, 48 h
SK-OV-3 ovarian = tested on: SK-OV-3 ovarian
CAKI-1 renal = tested on: CAKI-1 renal
786-0 renal = tested on: 786-0 renal
TK-10 renal = tested on: TK-10 renal
PC-3 prostate = tested on: PC-3 prostate
IGROV1 ovarian = tested on: IGROV1 ovarian
SW-620 colon = tested on: SW-620 colon
K-562 leukemia = tested on: K-562 leukemia
M14 melanoma = tested on: M14 melanoma

| SMILES | TGI (SK-OV-3 ovarian) [µM] | TGI (CAKI-1 renal) [µM] | TGI (786-0 renal) [µM] | TGI (TK-10 renal) [µM] | TGI (PC-3 prostate) [µM] | TGI (IGROV1 ovarian) [µM] | TGI (SW-620 colon) [µM] | TGI (K-562 leukemia) [µM] | TGI (M14 melanoma) [µM] |
| --- | --- | --- | --- | --- | --- | --- | --- | --- | --- |
| Cc1cc(N(C)C)c2ccccc2[n+]1CCCCCCCCCC[n+]1c(C)cc(N(C)C)c2ccccc21 | 5.81 | 20 | 19.5 | 18 | 7.48 | > 20.6 | 16.5 | > 35.3 | 12 |
| CO/N=C(/C(=O)OC)c1ccccc1COc1ccccc1C(F)(F)F | 91.8 | > 100 | > 100 | > 100 | > 100 | > 100 |  | > 100 | > 100 |
| COc1cc(Nc2ccc3c(c2)CCC3)nc(OC)n1 | > 100 | > 100 | > 100 | > 100 | > 100 | > 100 | > 100 |  | > 100 |
| CNc1[nH]c(=S)nc2sc3c(c12)CCCC3 |  | > 75 | > 75 | > 75 | > 75 | > 75 | > 75 | > 75 |  |
| N#Cc1sc2c(c1OC(=O)c1ccc(C(F)(F)F)cc1)c(=O)n(-c1ccccc1)c(=S)n2-c1ccccc1 | > 100 | 90.9 | > 100 | > 100 | > 100 | 56.2 | > 100 | > 100 | 81.7 |
| Cc1cc(C)nc(NC(=S)Nc2ccc([N+](=O)[O-])cc2)c1 |  | > 100 | > 100 | > 100 | > 100 | > 100 | > 100 | > 100 |  |
| CCOC(=O)/C(C(C)=O)=C(\OC(C)=O)c1ccncc1C(=O)O | > 100 | > 100 | > 100 |  | > 100 | > 100 | > 100 | > 100 | > 100 |
| CCOC(=O)c1c2cccccc-2nc1Nc1cccc2c(C)ccnc12 | > 10 | > 10 | > 10 | > 10 | > 10 | > 10 | > 10 | > 10 | > 10 |
| Cc1c2c(c(C)n1-c1ccccc1)C(=O)N(CCN1CCN(c3cccc(C(F)(F)F)c3)CC1)C2=O | > 100 | > 100 | > 100 | > 100 | > 100 | > 100 |  | > 100 | > 100 |
| CCOC(=O)CC/C(=N/Nc1ccc(Cl)cc1[N+](=O)[O-])C(=O)OCC | > 100 |  | > 100 | > 100 | > 100 | > 100 | > 100 | > 100 | > 100 |
| Nc1ncc2c(n1)-c1ccccc1OC2N1CCCC1 (stereo unspecified) | > 100 | > 100 | > 100 | > 100 | > 100 | > 100 | > 100 | > 100 | > 100 |
| COc1cc(O)c2c(=O)c(OC)c(-c3ccc(OC)c(O)c3)oc2c1 | > 100 | 74.4 | > 100 | > 100 | > 100 | > 100 | > 100 | > 100 | > 100 |
| O=c1c2c(no[n+]2[O-])c2ccccc2n1-c1ccccc1 | 21.7 | 6.39 | 9.97 | 27.2 | 21.4 | 10 | 7.54 | > 46.4 | 8.25 |
| Clc1sc(Cl)c2c1[C@@H](Cl)C[C@@H]2Br | > 100 | > 100 | > 100 | > 100 | > 100 | > 100 | > 100 | > 100 | > 100 |
| O=C(OCC(Cl)(Cl)Cl)N1CC[C@H](C2CCCCC2)C1 | 31.8 | 88.9 | 33.1 | 37.9 | 48.7 | 32.7 |  | 53 | 39.8 |
| CC(NC(=O)C(C)(C)NC(=O)C(CC(=O)OCc1ccccc1)NC(=O)OCc1ccccc1)C(N)=O (stereo unspecified) (Cbz-Asp(OBn)-[Aib]-Ala-NH2; configuration not given here) | > 100 | > 100 | > 100 | > 100 | > 100 | > 100 | > 100 | > 100 | > 100 |
| Clc1ccc(C=NC23CC4CC(CC(C4)C2)C3)c(Cl)c1 | > 10 | > 10 | > 10 | > 10 | > 10 | > 10 | > 10 | > 10 | > 10 |
| c1ccc(C(C(=Nc2ccc(Cc3ccc(N=C(C(c4ccccc4)c4ccccc4)N4CC4)cc3)cc2)N2CC2)c2ccccc2)cc1 | 11.1 | 24.1 | 65.5 | 34.5 | 22.6 | 2.41 | 20.1 | 17.6 | 70 |
| C=C(C)CNCCN |  | > 100 | > 100 | > 100 | > 100 | > 100 | > 100 | > 100 | > 100 |
| OCCCc1ccc2c(c1)[C@H](CO)[C@@H](c1ccc(O)cc1)O2 | > 100 |  | > 100 | > 100 | > 100 | > 100 | > 100 | > 100 | > 100 |
| c1ccc(C2=NOC(c3ccccc3)N2C23CC4CC(CC(C4)C2)C3)cc1 (stereo unspecified) | > 10 | > 10 | > 10 | > 10 | > 10 | > 10 | > 10 | > 10 | > 10 |
| CCOC(=O)C(NC(=O)CC)(N1CCN(c2cc3c(cc2F)c(=O)c(C(=O)O)cn3C2CC2)CC1)C(F)(F)F (stereo unspecified) | > 100 | > 100 | > 100 | > 100 | > 100 | > 100 | > 100 | > 100 | > 100 |
